Here are results for 34 compounds from patent publication US20110275583A1, “Synergistic active compound combinations” (priority 2010, published 2011).

Like-named read-outs stand apart in the source and are kept apart here.

Assay type in all cases: in vivo
Test [1] concerns greenhouse red spider mite (Tetranychus urticae). In words: Tetranychus test, OP-resistant/spray treatment (bean leaf discs). Conditions: single active compound. The source says:
(§1) The expected action for a given combination of two active compounds can be calculated as follows, using the formula of S. R. Colby, Weeds 15 (1967), 20-22: • If • X is the kill rate, expressed as % of the untreated control, when employing active compound A at an application rate of m g/ha or in a concentration of in ppm, • Y is the kill rate, expressed as % of the untreated control, when employing active compound B at an application rate of n g/ha or in a concentration of n ppm and • E is the kill rate, expressed as % of the untreated control, when employing active compounds A and B at application rates of m and n g/ha or in a concentration of m and n ppm, • then
(§2) If the actual kill rate exceeds the calculated value, the action of the combination is superadditive, i.e. a synergistic effect is present. In this case, the actually observed kill rate must exceed the value calculated using the above formula for the expected kill rate (E).
(§3) Solvent: 78 parts by weight of acetone • • 1.5 parts by weight of dimethylformamide
(§4) Emulsifier: 0.5 part by weight of alkylaryl polyglycol ether
(§5) To produce a suitable preparation of active compound, 1 part by weight of active compound is mixed with the stated amounts of solvent and emulsifier, and the concentrate is diluted with emulsifier-containing water to the desired concentration.
Discs of bean leaves (Phaseolus vulgaris) which are infested by all stages of the greenhouse red spider mite (Tetranychus urticae) are sprayed with an active compound preparation of the desired concentration.
After the desired period of time, the effect in % is determined. 100% means that all of the spider mites have been killed; 0% means that none of the spider mites have been killed.

Test [2] concerns green peach aphid (Myzus persicae). In words: Myzus persicae test (spray treatment of infested cabbage leaves).
From the text: as §1, §2, §3, §4, §5
Cabbage leaves (Brassica oleracea) which are heavily infested by the green peach aphid (Myzus persicae) are treated by spraying with the active compound preparation of the desired concentration.
After the desired period of time, the kill in % is determined. 100% means that all of the aphids have been killed; 0% means that none of the aphids have been killed. The kill rates determined are entered into Colby's formula.

Test [3] concerns larvae of the mustard beetle (Phaedon cochleariae). In words: Phaedon cochleariae larvae test (sprayed cabbage leaves). Conditions: single active compound.
From the text: as §1, §2, §3, §4, §5
Cabbage leaves (Brassica oleracea) are treated by spraying with the active compound preparation of the desired concentration and populated with larvae of the mustard beetle (Phaedon cochleariae) while the leaves are still moist.
After the desired period of time, the kill in % is determined. 100% means that all beetle larvae have been killed; 0% means that none of the beetle larvae have been killed. The kill rates determined are entered into Colby's formula.

The subject of test [4] is armyworm (Spodoptera frugiperda). In words: Spodoptera frugiperda larvae test (sprayed cabbage leaves). Conditions: Spodoptera frugiperda, single active compound.
From the text: as §1, §2, §3, §4, §5
Cabbage leaves (Brassica oleracea) are treated by being sprayed with the preparation of active compound of the desired concentration and are populated with the armyworm (Spodoptera frugiperda) while the leaves are still moist.
After the desired period of time, the kill in % is determined. 100% means that all caterpillars have been killed; 0% means that none of the caterpillars have been killed. The kill rates determined are entered, into Colby's formula.

[5] abbreviates: Tetranychus urticae, foliar, 48 h, 2 d, read-out: Kill in % after 2 d.
Setting [6] is: Tetranychus urticae, foliar, 48 h, 4 g/ha, 2 d, read-out: Kill in % after 2 d.
Where [7] appears, read: Myzus persicae, 24 h, after 1 d, read-out: Kill in % after 1d.
The mark [8] stands for this setting: Phaedon cochleariae, 144 h, 6 d, read-out: Kill in % after 6 d.
Where [9] appears, read: Myzus persicae, 144 h, single active compound, 6 d, read-out: Kill in % after 6 d.
Where [10] appears, read: Phaedon cochleariae, 48 h, 20 g/ha, 2 d, read-out: Kill in % after 2 d.
Setting [11] is: Myzus persicae, 24 h, 0.16 g/ha, after 1 d, read-out: Kill in % after 1d.
Setting [12] is: Myzus persicae, 144 h, 0.16 g/ha, single active compound, 6 d, read-out: Kill in % after 6 d.
Where [13] appears, read: Phaedon cochleariae, 144 h, 20 g/ha, 6 d, read-out: Kill in % after 6 d.
Where [14] appears, read: Tetranychus urticae, foliar, 144 h, 6 d, read-out: Kill in % after 6 d.
The mark [15] stands for this setting: Tetranychus urticae, foliar, 144 h, 4 g/ha, 6 d, read-out: Kill in % after 6 d.
Setting [16] is: 144 h, 6 d, read-out: Kill in % after 6 d.
Setting [17] is: Tetranychus urticae, foliar, 144 h, 20 g/ha, 6 d, read-out: Kill in % after 6 d.

With `CCc1nn(C)c(C(=O)NCc2ccc(C(C)(C)C)cc2)c1Cl` [tebufenpyrad, Tebufenpyrad], the pest or weed control at 0.8 g/ha in test [1] (setting [5]) was 0%. The pest or weed control at 4 g/ha in test [1] (setting [6]) was determined as 70%. Besides, the pest or weed control at 20 g/ha in test [2] (setting [7]) was found to be 0%. Also, in test [3] (setting [8]), the pest or weed control at 100 g/ha stood at 0%.
Take `CN/C(=N\[N+](=O)[O-])NCC1CCOC1` (stereo not shown) [dinotefuran]: the pest or weed control at 4 g/ha in test [2] (setting [7]) and in test [2] (setting [9]) was 0% in each case. Besides, the pest or weed control at 20 g/ha in test [3] (setting [10]) was 17%.
As for `CN1COCN(Cc2cnc(Cl)s2)/C1=N/[N+](=O)[O-]` [thiamethoxam], the pest or weed control at 0.16 g/ha in test [2] (setting [11]) and in test [2] (setting [12]) was 0% each time. In addition, the pest or weed control at 20 g/ha in test [3] (setting [13]) stood at 50%.
As to `CCOC(=O)OC1=C(c2cc(C)ccc2C)C(=O)N[C@]12CC[C@@H](OC)CC2` [spirotetramat], the pest or weed control at 0.16 g/ha in test [2] (setting [12]) amounted to 0%.
As for milbemectin, in test [3] (20 g/ha, 6 d), the “Kill in % after 6 d” value was 0%.
As to `O=[N+]([O-])/N=C1\NCCN1Cc1ccc(Cl)nc1` [imidacloprid], the pest or weed control at 0.16 g/ha in test [2] (setting [11]) is 0%. For the same compound, the pest or weed control at 20 g/ha in test [3] (setting [13]) was found to be 33%.
`Cc1cc(F)c(-n2nc(C(F)(F)F)nc2N)cc1[S+]([O-])CC(F)(F)F` (stereo not shown) [1-{2-fluoro-4-methyl-5-[(2,2,2-trifluoroethyl)sulphinyl]phenyl}-3-(trifluoromethyl)-1H-1,2,4-triazole-5-amine]: the pest or weed control at 0.8 g/ha in test [1] (setting [14]) is 0%. For the same compound, the pest or weed control at 4 g/ha in test [1] (setting [15]) is 80%. Also, the pest or weed control at 100 g/ha in test [3] (setting [8]) was determined as 0%.
For `CC(C)N1C(=O)N(c2ccccc2)CS/C1=N\C(C)(C)C` [buprofezin], in test [2] (Myzus persicae, 144 h, 500 g/ha, single active compound, 6 d, read-out: Kill in % after 6 d), the pest or weed control at 500 g/ha was 0%.
On to `O=C(NC(=O)c1ccccc1Cl)Nc1ccc(OC(F)(F)F)cc1` [triflumuron], for which the pest or weed control at 4 g/ha in test [4] (setting [16]) came to 17%.
In the case of `CS/C(C)=N\OC(=O)N(C)SN(C)C(=O)O/N=C(\C)SC` [thiodicarb], the pest or weed control at 100 g/ha in test [2] (Myzus persicae, 24 h, 100 g/ha, after 1 d, read-out: Kill in % after 1d) was determined as 0%.
On to `CC(c1ccc(C(F)(F)F)nc1)S(C)(=O)=NC#N` (stereo not shown) [sulfoxaflor], for which the pest or weed control at 4 g/ha in test [1] (setting [15]) stood at 0%.
`CC1(C)[C@H](C=C(Cl)Cl)[C@H]1C(=O)OCc1c(F)c(F)cc(F)c1F` [transfluthrin]: in test [4] (setting [16]), the pest or weed control at 4 g/ha turned out to be 33%.
Consider `CC1(C)C(C=C(Cl)Cl)C1C(=O)OC(C#N)c1cccc(Oc2ccccc2)c1` (stereo not shown) [cypermethrin], for which, in test [1] (setting [17]), the pest or weed control at 20 g/ha was determined as 0%. In addition, the pest or weed control at 0.8 g/ha in test [2] (setting [7]) was 70%. Further, the pest or weed control at 4 g/ha in test [3] (Phaedon cochleariae, 48 h, 4 g/ha, 2 d, read-out: Kill in % after 2 d) came to 17%.
Take `N#C/N=C1\SCCN1Cc1ccc(Cl)nc1` [thiacloprid]: the pest or weed control at 0.16 g/ha in test [2] (setting [11]) and in test [2] (setting [12]) was 0% throughout. The pest or weed control at 20 g/ha in test [3] (setting [13]) was 0%.
With `CC[S+]([O-])c1c(C#N)nn(-c2c(Cl)cc(C(F)(F)F)cc2Cl)c1N` (stereo not shown) [ethiprole], the pest or weed control at 20 g/ha in test [1] (setting [17]) and in test [2] (setting [7]) was 0% each time. Further, the pest or weed control at 0.16 g/ha in test [3] (Phaedon cochleariae, 144 h, 0.16 g/ha, 6 d, read-out: Kill in % after 6 d) was 0%.
Take spinosad: in test [1] (20 g/ha, 6 d), the “Kill in % after 6 d” value is on record as 80%. Further, in test [3] (4 g/ha, 2 d), the “Kill in % after 2 d” value was 33%.
Consider `CC(C)c1cc(Oc2ccccc2)cc(C(C)C)c1NC(=S)NC(C)(C)C` [diafenthiuron], for which the pest or weed control at 4 g/ha in test [1] (setting [6]) was 0%. Besides, the pest or weed control at 20 g/ha in test [2] (setting [7]) worked out at 0%.
Consider `CCOCn1c(-c2ccc(Cl)cc2)c(C#N)c(Br)c1C(F)(F)F` [chlorfenapyr], for which the pest or weed control at 100 g/ha in test [4] (48 h, 100 g/ha, 2 d, read-out: Kill in % after 2 d) worked out at 50%.
Regarding `C/C(=N\C#N)N(C)Cc1ccc(Cl)nc1` [acetamiprid], the pest or weed control at 0.16 g/ha in test [2] (setting [12]) stood at 0%. Moreover, the pest or weed control at 20 g/ha in test [3] (setting [13]) amounted to 0%.
With `O=C(NC(=O)c1c(F)cccc1F)Nc1ccc(Oc2ccc(C(F)(F)F)cc2Cl)cc1F` [flufenoxuron], the pest or weed control at 20 g/ha in test [4] (setting [16]) was found to be 33%.
On to `CC(=O)N1C(=O)N(NCc2cccnc2)Cc2cc(C(F)(C(F)(F)F)C(F)(F)F)ccc21` [pyrifluquinazone], for which the pest or weed control at 100 g/ha in test [1] (Tetranychus urticae, foliar, 144 h, 100 g/ha, 6 d, read-out: Kill in % after 6 d) came out at 0%.
With `Cc1cc(C(F)(C(F)(F)F)C(F)(F)F)ccc1NC(=O)c1cccc(I)c1C(=O)NC(C)(C)CS(C)(=O)=O` [flubendiamide, Flubendiamide], the pest or weed control at 4 g/ha in test [4] (setting [16]) came out at 33%. In addition, in test [2] (setting [9]), the pest or weed control at 0.8 g/ha stood at 0%.
As to `O=C(NC(=O)c1c(F)cccc1F)Nc1ccc(OC(F)(F)C(F)OC(F)(F)F)c(Cl)c1` (stereo not shown) [novaluron], the pest or weed control at 100 g/ha in test [3] (setting [8]) came to 0%.
Consider `CNC(=O)Oc1cccc2c1OC(C)(C)C2` [carbofuran], for which the pest or weed control at 4 g/ha in test [4] (setting [16]) was 0%.
`CCC(C)(C)C(=O)OC1=C(c2ccc(Cl)cc2Cl)C(=O)OC12CCCCC2` [spirodiclofen]: the pest or weed control at 0.8 g/ha in test [1] (setting [14]) was found to be 20%. In addition, the pest or weed control at 4 g/ha in test [2] (setting [9]) was 0%.
Consider `CC1(C)C(/C=C/C(=O)OC(C(F)(F)F)C(F)(F)F)C1C(=O)OC(C#N)c1cccc(Oc2ccccc2)c1` (stereo not shown) [acrinathrin], for which the pest or weed control at 0.8 g/ha in test [4] (144 h, 0.8 g/ha, 6 d, read-out: Kill in % after 6 d) was determined as 0%.
For the compound `O=C1C=C(N(Cc2ccc(Cl)nc2)CC(F)F)CO1` [4-{[(6-chloropyrid-3-yl)methyl](2,2-difluoroethyl)amino}furan-2(5H)-one], in test [2] (setting [7]), the pest or weed control at 4 g/ha was determined as 70%.
Regarding abamectin, the “Kill in % after 2 d” value in test [1] (4 g/ha, 2 d) came to 0%. In addition, the “Kill in % after 1d” value in test [2] (0.16 g/ha, after 1 d) worked out at 0%. Further, the “Kill in % after 6 d” value in test [2] (0.16 g/ha, single active compound, 6 d) was found to be 0%; in test [3] (0.16 g/ha, 6 d), 0%.
In the case of `COc1cccc(C(=O)NN(C(=O)c2cc(C)cc(C)c2)C(C)(C)C)c1C` [methoxyfenozide], in test [4] (48 h, 2 d, read-out: Kill in % after 2 d), the pest or weed control at 20 g/ha amounted to 33%.
With `CC1(C)[C@H](/C=C(\Cl)C(F)(F)F)[C@@H]1C(=O)O[C@H](C#N)c1cccc(Oc2ccccc2)c1` [gamma-cyhalothrin], the pest or weed control at 0.8 g/ha in test [1] (setting [5]) came out at 0%. In addition, in test [2] (Myzus persicae, 24 h, 0.032 g/ha, after 1 d, read-out: Kill in % after 1d), the pest or weed control at 0.032 g/ha worked out at 0%.
`Cc1cc(C)c(C2=C(OC(=O)CC(C)(C)C)C3(CCCC3)OC2=O)c(C)c1` [spiromesifen]: in test [1] (Tetranychus urticae, foliar, 48 h, 20 g/ha, 2 d, read-out: Kill in % after 2 d), the pest or weed control at 20 g/ha was determined as 0%. Also, the pest or weed control at 0.8 g/ha in test [2] (setting [9]) amounted to 0%.
`Cc1c(F)c(F)c(COC(=O)[C@@H]2[C@H](/C=C(\Cl)C(F)(F)F)C2(C)C)c(F)c1F` (racemic) [tefluthrin]: the pest or weed control at 4 g/ha in test [2] (setting [7]) came out at 70%. Further, the pest or weed control at 20 g/ha in test [3] (setting [13]) worked out at 33%.
In the case of spinetoram, in test [3] (4 g/ha, 2 d), the “Kill in % after 2 d” value is reported as 50%.
`Cc1nn(C)c(Oc2ccccc2)c1C=NOCc1ccc(C(=O)OC(C)(C)C)cc1` [fenpyroximate, Fenpyroximate]: the pest or weed control at 20 g/ha in test [3] (setting [10]) was 0%.
